This passage reports inhibition results from patent publication US11339150B2, “Benzimidazole compounds as HDAC6 inhibitors” (OnKure, Inc., priority 2019, dated 2022).

Counter-ions that a name gives are not always drawn. Bounds are passed on as bounds.

The target in the test is T1, HDAC6 (Homo sapiens, UniProt Q9UBN7).
T1 sequence (Q9UBN7 1-1215): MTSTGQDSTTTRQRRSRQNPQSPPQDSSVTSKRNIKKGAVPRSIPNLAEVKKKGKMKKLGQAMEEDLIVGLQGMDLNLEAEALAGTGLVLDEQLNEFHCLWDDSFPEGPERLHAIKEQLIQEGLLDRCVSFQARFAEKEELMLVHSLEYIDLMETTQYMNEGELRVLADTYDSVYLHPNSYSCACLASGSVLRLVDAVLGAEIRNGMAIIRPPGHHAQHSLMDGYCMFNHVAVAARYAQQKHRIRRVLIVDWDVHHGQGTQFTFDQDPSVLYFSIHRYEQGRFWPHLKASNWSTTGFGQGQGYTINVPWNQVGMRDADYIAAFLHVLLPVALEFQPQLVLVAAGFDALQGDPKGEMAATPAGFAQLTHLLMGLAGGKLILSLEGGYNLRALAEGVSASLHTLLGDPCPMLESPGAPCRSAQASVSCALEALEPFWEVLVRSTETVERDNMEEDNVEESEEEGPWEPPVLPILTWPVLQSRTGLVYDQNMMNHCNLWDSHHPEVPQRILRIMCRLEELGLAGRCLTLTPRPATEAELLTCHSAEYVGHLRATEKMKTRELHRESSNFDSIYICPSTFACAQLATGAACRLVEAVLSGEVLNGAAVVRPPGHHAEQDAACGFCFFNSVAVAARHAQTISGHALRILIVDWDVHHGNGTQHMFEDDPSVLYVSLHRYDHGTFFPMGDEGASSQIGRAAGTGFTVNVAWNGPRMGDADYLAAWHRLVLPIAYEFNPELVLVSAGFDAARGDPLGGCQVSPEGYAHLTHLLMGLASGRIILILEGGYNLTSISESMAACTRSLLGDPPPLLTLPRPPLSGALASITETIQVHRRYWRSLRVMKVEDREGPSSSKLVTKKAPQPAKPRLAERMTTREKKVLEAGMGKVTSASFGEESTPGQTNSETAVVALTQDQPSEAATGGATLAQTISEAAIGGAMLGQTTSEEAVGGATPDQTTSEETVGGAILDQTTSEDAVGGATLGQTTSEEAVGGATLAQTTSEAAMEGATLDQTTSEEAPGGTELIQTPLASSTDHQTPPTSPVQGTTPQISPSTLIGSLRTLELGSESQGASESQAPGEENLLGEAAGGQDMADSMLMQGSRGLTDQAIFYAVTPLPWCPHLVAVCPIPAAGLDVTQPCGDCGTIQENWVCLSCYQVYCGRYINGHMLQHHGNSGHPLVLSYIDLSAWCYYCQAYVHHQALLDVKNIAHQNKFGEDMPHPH
The experiment in a line: HDAC assay (fluorogenic substrate), HDAC6. Type of test: biochemical. The method, then: Base Reaction buffer: 50 mM Tris-HCl, pH8.0, 137 mM NaCl, 2.7 mM KCl, and 1 mM MgCl2. Add fresh: 1 mg/ml BSA, 1% DMSO
Fluorogenic HDAC General Substrate: 50 μM, Arg-His-Lys-Lys(Ac)
• 1. Deliver 2× enzyme in wells of reaction plate except No Enzyme control wells. Add buffer in No En wells. • 2. Deliver compounds in 100% DMSO into the enzyme mixture by Acoustic technology (Echo550; nanoliter range). Spin down and pre-incubation. • 3. Deliver 2× Substrate Mixture (Fluorogenic HDAC Substrate and co-factor if applicable) in all reaction wells to initiate the reaction. Spin and shake. • 4. Incubate for 30 min for Class 2A, 1 hr for HDAC1, 2, 3, and 6, and 2 hr for the rest of HDACs and SIRTs at 30° C. with seal. Development Step: • 5. Add Developer with Trichostatin A (or Nicotinamide for SIRTs) to stop the reaction and to generate fluorescent color. • 6. Kinetic measurement for 1.5 hr with Envision with 15 min interval. (Ex/Em=360/460 nm) • 7. Take endpoint reading for analysis after the development reaches plateau.
In turn, `CN(C)c1nc2c(-c3ccccc3)cc(Nc3ncc(-c4nnc(C(F)F)o4)cn3)cc2[nH]1` [Example 6, N6-(5-(5-(difluoromethyl)-1,3,4-oxadiazol-2-yl)pyrimidin-2-yl)-N2,N2-dimethyl-4-phenyl-1H-benzo[d]imidazole-2,6-diamine] came in with an inhibition at 10 µM of more than 80%. In turn, `O=S(=O)(NCCO)c1cc(Nc2ncc(-c3nnc(C(F)F)o3)cn2)cc2[nH]cnc12` [Example 11, 6-((5-(5-(difluoromethyl)-1,3,4-oxadiazol-2-yl)pyrimidin-2-yl)amino)-N-(2-hydroxyethyl)-1H-benzo[d]imidazole-4-sulfonamide] gave an inhibition at 10 µM of more than 90%. Turning to `OCCn1cnc2c(-c3cn[nH]c3)cc(Nc3ncc(-c4nnc(C(F)F)o4)cn3)cc21` [Example 46, 2-(6-((5-(5-(difluoromethyl)-1,3,4-oxadiazol-2-yl)pyrimidin-2-yl)amino)-4-(1H-pyrazol-4-yl)-1H-benzo[d]imidazol-1-yl)ethan-1-ol], the inhibition at 10 µM is more than 90%. To `CN(C)C(=O)Cn1cnc2c(-c3ccccc3)cc(Nc3ncc(-c4nnc(C(F)F)o4)cn3)cc21` [Example 25, 2-(6-((5-(5-(difluoromethyl)-1,3,4-oxadiazol-2-yl)pyrimidin-2-yl)amino)-4-phenyl-1H-benzo[d]imidazol-1-yl)-N,N-dimethylacetamide] belongs more than 90%; to `Cc1nc2c(-c3ccccc3)cc(Nc3ncc(-c4nnc(C(F)F)o4)cn3)cc2n1CCO` [Example 30, 2-(6-((5-(5-(difluoromethyl)-1,3,4-oxadiazol-2-yl)pyrimidin-2-yl)amino)-2-methyl-4-phenyl-1H-benzo[d]imidazol-1-yl)ethan-1-ol], more than 90%; to `Fc1cnc(-c2cc(Nc3ncc(-c4nnc(C(F)F)o4)cn3)cc3[nH]cnc23)c(F)c1` [Example 22, N-(5-(5-(difluoromethyl)-1,3,4-oxadiazol-2-yl)pyrimidin-2-yl)-4-(3,5-difluoropyridin-2-yl)-1H-benzo[d]imidazol-6-amine], more than 90%.

With `OCCn1c(C(F)(F)F)nc2c(-c3ccccc3)cc(Nc3ncc(-c4nnc(C(F)F)o4)cn3)cc21` [Example 41, 2-(6-((5-(5-(difluoromethyl)-1,3,4-oxadiazol-2-yl)pyrimidin-2-yl)amino)-4-phenyl-2-(trifluoromethyl)-1H-benzo[d]imidazol-1-yl)ethan-1-ol], the inhibition at 10 µM is more than 90%.

In turn, `FC(F)c1nnc(-c2cnc(Nc3cc(-c4ccc(CN5CCOCC5)cc4)c4nc[nH]c4c3)nc2)o1` [Example 18, N-(5-(5-(difluoromethyl)-1,3,4-oxadiazol-2-yl)pyrimidin-2-yl)-4-(4-(morpholinomethyl)phenyl)-1H-benzo[d]imidazol-6-amine] yielded an inhibition at 10 µM of more than 90%. To `OCCn1cnc2c(-c3ccc(F)cc3F)cc(Nc3ncc(-c4nnc(C(F)F)o4)cn3)cc21` [Example 32, 2-(6-((5-(5-(difluoromethyl)-1,3,4-oxadiazol-2-yl)pyrimidin-2-yl)amino)-4-(2,4-difluorophenyl)-1H-benzo[d]imidazol-1-yl)ethan-1-ol] belongs more than 90%. Regarding `CN(C)C(=O)c1cc(Nc2ncc(-c3nnc(C(F)F)o3)cn2)cc2[nH]cnc12` [Example 8, 6-((5-(5-(difluoromethyl)-1,3,4-oxadiazol-2-yl)pyrimidin-2-yl)amino)-N,N-dimethyl-1H-benzo[d]imidazole-4-carboxamide], the inhibition at 10 µM is more than 80%. With `Cc1nc2c(-c3ccccc3)cc(Nc3ncc(-c4nnc(C(F)F)o4)cn3)cc2[nH]1` [Example 5, N-(5-(5-(difluoromethyl)-1,3,4-oxadiazol-2-yl)pyrimidin-2-yl)-2-methyl-4-phenyl-1H-benzo[d]imidazol-6-amine], the inhibition at 10 µM is more than 90%.

`Fc1ccc(Cl)cc1-c1cc(Nc2ncc(-c3nnc(C(F)F)o3)cn2)cc2[nH]cnc12` [Example 45, 4-(5-chloro-2-fluorophenyl)-N-(5-(5-(difluoromethyl)-1,3,4-oxadiazol-2-yl)pyrimidin-2-yl)-1H-benzo[d]imidazol-6-amine]: the inhibition at 10 µM was more than 90%. The compound `FC(F)c1nnc(-c2cnc(NCc3cc(-c4ccccc4)c4nc[nH]c4c3)nc2)o1` [Example 20, 5-(5-(difluoromethyl)-1,3,4-oxadiazol-2-yl)-N-((4-phenyl-1H-benzo[d]imidazol-6-yl)methyl)pyrimidin-2-amine] showed an inhibition at 10 µM of more than 90%.

The compound `FC(F)c1nnc(-c2cnc(Nc3cc(-c4cccnc4)c4nc[nH]c4c3)nc2)o1` [Example 3, N-(5-(5-(difluoromethyl)-1,3,4-oxadiazol-2-yl)pyrimidin-2-yl)-4-(pyridin-3-yl)-1H-benzo[d]imidazol-6-amine hydrochloride] yielded an inhibition at 10 µM of more than 80%.

In turn, `OCCn1cnc2c(-c3ccc(F)cc3C(F)(F)F)cc(Nc3ncc(-c4nnc(C(F)F)o4)cn3)cc21` [Example 33, 2-(6-((5-(5-(difluoromethyl)-1,3,4-oxadiazol-2-yl)pyrimidin-2-yl)amino)-4-(4-fluoro-2-(trifluoromethyl)phenyl)-1H-benzo[d]imidazol-1-yl)ethan-1-ol] registered an inhibition at 10 µM of more than 90%. Under `CNC(=O)n1cnc2c(-c3ccccc3)cc(Nc3ncc(-c4nnc(C(F)F)o4)cn3)cc21` [Example 28, 6-((5-(5-(difluoromethyl)-1,3,4-oxadiazol-2-yl)pyrimidin-2-yl)amino)-N-methyl-4-phenyl-1H-benzo[d]imidazole-1-carboxamide] stands more than 90%; under `OCCn1cnc2c(-c3ccccc3)cc(Nc3ncc(-c4nnc(C(F)F)o4)cn3)cc21` [Example 14, 2-(6-((5-(5-(difluoromethyl)-1,3,4-oxadiazol-2-yl)pyrimidin-2-yl)amino)-4-phenyl-1H-benzo[d]imidazol-1-yl)ethan-1-ol], more than 90%; under `FC(F)c1nnc(-c2cnc(Nc3cc(-c4ccn[nH]4)c4nc[nH]c4c3)nc2)o1` [Example 36, N-(5-(5-(difluoromethyl)-1,3,4-oxadiazol-2-yl)pyrimidin-2-yl)-4-(1H-pyrazol-5-yl)-1H-benzo[d]imidazol-6-amine], more than 90%. `C=CCn1cnc2c(-c3ccccc3)cc(Nc3ncc(-c4nnc(C(F)F)o4)cn3)cc21` [Example 12, 1-allyl-N-(5-(5-(difluoromethyl)-1,3,4-oxadiazol-2-yl)pyrimidin-2-yl)-4-phenyl-1H-benzo[d]imidazol-6-amine] displayed an inhibition at 10 µM of more than 90%. To `OCC(O)Cn1cnc2c(-c3ccccc3)cc(Nc3ncc(-c4nnc(C(F)F)o4)cn3)cc21` (stereo not shown) [Example 13, 3-(6-((5-(5-(difluoromethyl)-1,3,4-oxadiazol-2-yl)pyrimidin-2-yl)amino)-4-phenyl-1H-benzo[d]imidazol-1-yl)propane-1,2-diol] belongs more than 90%; to `Fc1cc(I)ccc1-c1cc(Nc2ncc(-c3nnc(C(F)F)o3)cn2)cc2[nH]cnc12` [Example 42, N-(5-(5-(difluoromethyl)-1,3,4-oxadiazol-2-yl)pyrimidin-2-yl)-4-(2-fluoro-4-iodophenyl)-1H-benzo[d]imidazol-6-amine], more than 90%. The compound `OC1CCN(CCn2cnc3c(-c4ccccc4)cc(Nc4ncc(-c5nnc(C(F)F)o5)cn4)cc32)C1` (stereo not shown) [Example 16, 1-(2-(6-((5-(5-(difluoromethyl)-1,3,4-oxadiazol-2-yl)pyrimidin-2-yl)amino)-4-phenyl-1H-benzo[d]imidazol-1-yl)ethyl)pyrrolidin-3-ol] came in with an inhibition at 10 µM of more than 90%.

What is called inhibition is the drop in the measured response relative to a control, in per cent. Higher therefore signals a strong effect.
